PubChem BioAssay AID1845207 (Molecular Pharmacology Branch, DTP, NCI, 2023)
pIC50: −log10 of the molar value.

Test system: NCI-H1876 tumor spheroid viability
Assay: Anticancer human tumor NCI-H1876 cell line growth inhibition;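 also: spheroids exposed to compounds for seven days before the viability read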;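 as to viability, T/C: percent of DMSO vehicle control viability so 100% = vehicle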
Conditions: spheroids with HUVEC and MSC; for pIC50: curve of first compound; for viability, T/C: stronger effect = lower value; active = viability on the fitted dose curve at most 10% of control; inactive = the rest
Source text: Multicellular complex tumor spheroid response to DNA repair inhibitors in combination with DNA-damaging drugs
This study explores the anticancer activities of DNA-damaging drugs and inhibitors of DNA damage repair, both as single agents and in combinations. Complex tumor spheroids comprised of malignant cells, endothelial cells and mesenchymal stem cells served as an in vitro model for human solid tumors. This model system incorporates physiologically relevant features and patient-derived or established malignant cell lines with clinically relevant genetic alterations from many tumor types. Twenty-six patient-derived or established malignant cell lines were evaluated representing sarcoma, melanoma, small cell lung cancer (SCLC), non-small cell lung cancer (NSCLC), as well as bladder, ovarian and pancreatic cancers. The concentration ranges selected for each drug and investigational agent were based upon clinically achievable concentrations if the clinical Cmax of the agent was known.
Compounds. The drugs and compounds olaparib (NSC753686), talazoparib (NSC767125), berzosertib (NSC777718), elimusertib (NSC800525), nedisertib (NSC802822), VX-984 (NSC792969), AZD-1390 (NSC803789), temozolomide (NSC362856), topotecan (NSC609699), trabectedin (NSC813783), staurosporine (NSC755774), and gemcitabine (NSC613327) were obtained from the National Cancer Institute (NCI) Developmental Therapeutics Program Chemical Repository. The FDA-approved anticancer drug set is available from the Developmental Therapeutics Program at https://dtp.cancer.gov/organization/dscb/obtaining/available_plates.htm. […] The stock solutions were prepared in dimethyl sulfoxide (DMSO, Sigma-Aldrich, St. Louis, MO, cat. D2650) at 400-fold the tested concentration and stored at -70 degrees C. Prior to their use, the stock solutions were diluted in fresh medium and the final DMSO concentration in the assay was 0.25% (v/v). All drugs and investigational agents were tested over a range starting from a high concentration at or near the clinical Cmax and decreasing in half-log increments. If the clinical Cmax for an agent had not been determined, the highest concentration tested was 10 microM.
Cell Lines. The patient-derived cancer cell (PDC) lines: 156681-154-R-J1-PDC, 283228-195-R-J1-PDC, 287954-098-R-J1-PDC, 292921-168-R-J2-PDC, 349418-098-R-PDC, 425362-245-T-J1-PDC, 556581-035-R-J1-PDC, and BL0293-F563-PDC were received from the NCI Patient-Derived Models Repository (PDMR, https://pdmr.cancer.gov). The established cell lines HS-SY-2 (RRID:CVCL_8719), MPNST, and SYO-1 (RRID:CVCL_7146) were obtained from the Sloan Kettering Institute. The alveolar soft parts sarcoma cell line ASPS-1 (RRID:CVCL_S738) was established at the NCI and grown from internal seed stocks. The following established cell lines were purchased from the American Type Culture Collection (ATCC, Manassas, VA): G-401 (ATCC, cat. CRL-1441, RRID:CVCL_0270), SW982 (ATCC, cat. HTB-93, RRID:CVCL_1734), VA-ES-BJ (ATCC, cat. CRL-2138, RRID:CVCL_1785), NCI-H719 (ATCC, cat. CRL-5837, RRID:CVCL_1582), NCI-H196 (ATCC, cat. CRL-5823, RRID:CVCL_1509), NCI-H841 (ATCC, cat. CRL-5845, RRID:CVCL_1595), NCI-H1618 (ATCC, cat. CRL-5879, RRID:CVCL_1480), NCI-H1876 (ATCC, cat. CRL-5902, RRID:CVCL_1503), DMS 114 (ATCC, cat. CRL-2066; RRID:CVCL_1174), NCI-H211 (ATCC, cat. CRL-5824; RRID:CVCL_1529), and SW 1271 (ATCC, cat. CRL-2177, RRID:CVCL_1716). The small cell lung cancer cell line COR-L88 was purchased from Sigma-Aldrich (cat. 92031917-1VL, RRID:CVCL_1141). The non-small cell lung cancer cell lines NCI-H226 (RRID:CVCL_1544) and NCI-H322M (RRID:CVCL_1557) were established at the NCI and grown from internal seed stocks. Pooled donor human umbilical vein endothelial cells (HUVEC, Lonza, cat. CC-2519) and human mesenchymal stem cells (hMSC, Lonza, cat. PT-2501) were purchased from Lonza (Walkersville, MD).
Cell Culture. All cells were maintained in an incubator at 37 degrees C and 5% CO2 with 95% humidity. […]

Cc1cc(C)c(CNC(=O)c2cc(-c3ccc(CN4CCOCC4)cc3)cc3c2cnn3C2CCCC2)c(=O)[nH]1 + COc1cc2c(cc1O)CCNC21CSC2c3c(OC(C)=O)c(C)c4c(c3C(COC1=O)N1C(O)C3Cc5cc(C)c(OC)c(O)c5C(C21)N3C)OCO4
inactive: viability, T/C (second compound 30 pM, first compound 0.0316 µM) 103% | viability, T/C (second compound 30 pM, first compound 0.1 µM) 101% | viability, T/C (second compound 30 pM, first compound 0.316 µM) 104% | viability, T/C (second compound 30 pM, first compound 1 µM) 104% | viability, T/C (second compound 30 pM, first compound 3.16 µM) 104% | viability, T/C (second compound 30 pM, first compound 10 µM) 85.3% | viability, T/C (second compound 94.9 pM, first compound 0.0316 µM) 93.1% | viability, T/C (second compound 94.9 pM, first compound 0.1 µM) 94.2% | viability, T/C (second compound 94.9 pM, first compound 0.316 µM) 94.1% | viability, T/C (second compound 94.9 pM, first compound 1 µM) 91.5% | viability, T/C (second compound 94.9 pM, first compound 3.16 µM) 93.2% | viability, T/C (second compound 94.9 pM, first compound 10 µM) 63.8% | viability, T/C (second compound 0.0003 µM, first compound 0.0316 µM) 29.7% | viability, T/C (second compound 0.0003 µM, first compound 0.1 µM) 33.7% | viability, T/C (second compound 0.0003 µM, first compound 0.316 µM) 34.9% | viability, T/C (second compound 0.0003 µM, first compound 1 µM) 27.2% | viability, T/C (second compound 0.0003 µM, first compound 3.16 µM) 28.6% | viability, T/C (second compound 0.0003 µM, first compound 10 µM) 17.4%
active: viability, T/C (second compound 0.000949 µM, first compound 0.0316 µM) 2.79% | viability, T/C (second compound 0.000949 µM, first compound 0.1 µM) 5.13% | viability, T/C (second compound 0.000949 µM, first compound 0.316 µM) 3.54% | viability, T/C (second compound 0.000949 µM, first compound 1 µM) 3.83% | viability, T/C (second compound 0.000949 µM, first compound 3.16 µM) 3.88% | viability, T/C (second compound 0.000949 µM, first compound 10 µM) 4.21% | viability, T/C (second compound 0.003 µM, first compound 0.0316 µM) 0.62% | viability, T/C (second compound 0.003 µM, first compound 0.1 µM) 0.99% | viability, T/C (second compound 0.003 µM, first compound 0.316 µM) 0.83% | viability, T/C (second compound 0.003 µM, first compound 1 µM) 1.17% | viability, T/C (second compound 0.003 µM, first compound 3.16 µM) 0.68% | viability, T/C (second compound 0.003 µM, first compound 10 µM) 0.88%
> 7.50: pIC50 (second compound 0.0003 µM) | pIC50 (second compound 0.000949 µM) | pIC50 (second compound 0.003 µM)
< 5.00: pIC50 (second compound 30 pM) | pIC50 (second compound 94.9 pM)
